Experimental findings from patent publication US20220249454A1, “INHIBITORS OF MONOCARBOXYLATE TRANSPORTERS FOR CANCER IMMUNOTHERAPY” (NIROGY THERAPEUTICS, INC., priority 2021, published 2022) are described below.

Structures are written as SMILES.

Usually IC50 stands for the concentration needed to halve the response being measured. A low value points to greater potency in that assay.

The test concerns panel of solid and haemotological tumor cell lines (e.g., Hs578t, SiHa, MDA-MB-231). As to the kind of experiment: MTS cell proliferation assay (cytotoxicity). The settings on record: 72-96 hours, 10 mM lactate medium or RPMI 1640 medium, cell line not stated. The class given is cell-based. The procedure: The anti-proliferation effect of MCT inhibition was investigated across a panel of solid and haemotological tumor cell lines. Cells were routinely cultured in their appropriate growth medium. On day 1, between 10,000-25,000 cells/well (e.g., Hs578t: 15,000 cells/well, SiHa: 10,000 cells/well, and MDA-MB-231: 25,000 cells/well) were plated into 96-well plates. 100 μL. of phosphate buffered saline solution was added to the external wells to prevent media evaporation. Plates were incubated in growth medium overnight at 37° C. in the presence of 5% CO2. On day 2, dry weight compound stocks were dissolved to a concentration of 10 mM in 100% DMSO. Compounds were further diluted in the assay medium; 10 mM lactate medium (without glucose, pyruvate, and glutamine) or RPMI 1640 medium (without pyruvate and glutamine) to generate a final dose range of 1 nM to 10 μM. Growth medium in the 96-well plate was replaced with the assay medium (10 mM lactate medium or RPMI medium or appropriate medium), and compounds were added to each well in the plate at different concentrations via serial dilution or pre-prepared solutions in assay medium. Plates were then incubated at 37° C. in the presence of 5% CO2 for a further 72-96 hours. On day 2-5, assay media was changed to 100 uL of DMEM/F12 and 20 μL of CellTiter 96 AQ MTS reagent was added to each well and the plate was returned to the incubator for 1-2 hours. MTS is bioreduced by NADPH or NADH produced by dehydrogenase enzymes in metabolically active cells into a coloured formazan product that is soluble in tissue culture medium. The amount of coloured formazan product is directly proportional to the number of living cells in culture. The absorbance of the plates was read on a Spectramax M5e plate reader using […] measurement wavelength. Dose response curves were plotted and IC50 values were calculated using GraphPad Prism. The IC50 value is equivalent to the concentration of compound that causes 50% inhibition of growth calculated from the compound treated signal to the vehicle treated signal.
Cytotoxicity of selected compounds is listed in Table 1, where IC50: A=<1 uM; B=1-10 uM; C=>10 uM; and NT=Not Tested.

As for `COc1ccc(C(=O)N(C)c2cc3oc(=O)c(C(=O)O)cc3s2)cc1` [Compound 1.016, 2-[(4-Methoxy-benzoyl)-methyl-amino]-5-oxo-5H-thieno[3,2-b]pyran-6-carboxylic acid], the half-maximal inhibitory concentration (IC50) (Table 1 (Group 1)) is less than 1 µM.
For `COc1ccc(NC(=O)N(C)c2cc3oc(=O)c(C(=O)O)cc3s2)cc1OC` [Compound 2.006, 2-(3-(3,4-dimethoxyphenyl)-1-methylureido)-5-oxo-5H-thieno[3,2-b]pyran-6-carboxylic acid], the half-maximal inhibitory concentration (IC50) (Table 2 (Group 2)) was less than 1 µM.
For `CN(C(=O)Nc1cccc2c1CCCC2)c1cc2oc(=O)c(C(=O)O)cc2s1` [Compound 2.038, 2-(1-methyl-3-(5,6,7,8-tetrahydronaphthalen-1-yl)ureido)-5-oxo-5H-thieno[3,2-b]pyran-6-carboxylic acid], the IC50 (Table 2 (Group 2)) was less than 1 µM.
The same measure, in the same setting: for `CN(C(=O)c1cccc(-c2ccc(F)cc2)c1)c1cc2oc(=O)c(C(=O)O)cc2s1` [Compound 2.031, 2-(4′-fluoro-N-methyl-[1,1′-biphenyl]-3-carboxamido)-5-oxo-5H-thieno[3,2-b]pyran-6-carboxylic acid] the value was less than 1 µM; for `CCOc1ccccc1NC(=O)N(C)c1cc2oc(=O)c(C(=O)O)cc2s1` [Compound 2.010, 2-(3-(2-ethoxyphenyl)-1-methylureido)-5-oxo-5H-thieno[3,2-b]pyran-6-carboxylic acid], less than 1 µM.
`CN(C(=O)c1ccccc1-c1ccc(F)cc1)c1cc2oc(=O)c(C(=O)O)cc2s1` [Compound 2.032, 2-(4′-fluoro-N-methyl-[1,1′-biphenyl]-2-carboxamido)-5-oxo-5H-thieno[3,2-b]pyran-6-carboxylic acid]: the IC50 (Table 2 (Group 2)) is less than 1 µM.
The same measure, in the same setting: for `COc1cc(NC(=O)N(C)c2cc3oc(=O)c(C(=O)O)cc3s2)ccc1F` [Compound 2.016, 2-(3-(4-fluoro-3-methoxyphenyl)-1-methylureido)-5-oxo-5H-thieno[3,2-b]pyran-6-carboxylic acid] the value was less than 1 µM.
Consider `CN(CC1CCOCC1)c1cc2oc(=O)c(C(=O)O)cc2s1` [Compound 1.008, 2-(methyl((tetrahydro-2H-pyran-4-yl)methyl)amino)-5-oxo-5H-thieno[3,2-b]pyran-6-carboxylic acid], for which, under “Table 1 (Group 1)”, the IC50 is less than 1 µM.
Same read-out and setting: to `COc1cccc(S(=O)(=O)N(C)c2cc3oc(=O)c(C(=O)O)cc3s2)c1` [Compound 1.024, 2-[(3-Methoxy-benzenesulfonyl)-methyl-amino]-5-oxo-5H-thieno[3,2-b]pyran-6-carboxylic acid] belongs less than 1 µM.
Still for that read-out and setting: for `COc1cc(C(=O)N(C)c2cc3oc(=O)c(C(=O)O)cc3s2)ccc1F` [Compound 1.019, 2-[(4-Fluoro-3-methoxy-benzoyl)-methyl-amino]-5-oxo-5H-thieno[3,2-b]pyran-6-carboxylic acid] the value was less than 1 µM; for `CN(C(=O)C1CCOCC1)c1cc2oc(=O)c(C(=O)O)cc2s1` [Compound 1.018, 2-[Methyl-(tetrahydro-pyran-4-carbonyl)-amino]-5-oxo-5H-thieno[3,2-b]pyran-6-carboxylic acid], less than 1 µM; for `CN(C(=O)c1ccc(F)cc1)c1cc2oc(=O)c(C(=O)O)cc2s1` [Compound 1.011, 2-(4-fluoro-N-methylbenzamido)-5-oxo-5H-thieno[3,2-b]pyran-6-carboxylic acid], less than 1 µM.
Compound `Cc1cccc(NC(=O)N(C)c2cc3oc(=O)c(C(=O)O)cc3s2)c1` [Compound 2.036, 2-(1-methyl-3-(m-tolyl)ureido)-5-oxo-5H-thieno[3,2-b]pyran-6-carboxylic acid] came in with an IC50 (Table 2 (Group 2)) of less than 1 µM.
Still for that read-out and setting: for `CN(C(=O)Nc1ccc(F)cc1F)c1cc2oc(=O)c(C(=O)O)cc2s1` [Compound 2.037, 2-(3-(2,4-difluorophenyl)-1-methylureido)-5-oxo-5H-thieno[3,2-b]pyran-6-carboxylic acid] the value was less than 1 µM.
On the same count and under the same terms, for `COc1cc(F)ccc1NC(=O)N(C)c1cc2oc(=O)c(C(=O)O)cc2s1` [Compound 2.015, 2-(3-(4-fluoro-2-methoxyphenyl)-1-methylureido)-5-oxo-5H-thieno[3,2-b]pyran-6-carboxylic acid] the value was less than 1 µM; for `COc1ccc(OC)c(NC(=O)N(C)c2cc3oc(=O)c(C(=O)O)cc3s2)c1` [Compound 2.013, 2-(3-(2,5-dimethoxyphenyl)-1-methylureido)-5-oxo-5H-thieno[3,2-b]pyran-6-carboxylic acid], less than 1 µM; for `CN(C(=O)Nc1ccc(Cl)cc1)c1cc2oc(=O)c(C(=O)O)cc2s1` [Compound 2.004, 2-(3-(4-chlorophenyl)-1-methylureido)-5-oxo-5H-thieno[3,2-b]pyran-6-carboxylic acid], less than 1 µM.
The same measure, in the same setting: to `COc1ccc(NC(=O)N(C)c2cc3oc(=O)c(C(=O)O)cc3s2)cc1C` [Compound 2.026, 2-(3-(4-methoxy-3-methylphenyl)-1-methylureido)-5-oxo-5H-thieno[3,2-b]pyran-6-carboxylic acid] belongs less than 1 µM.
Compound `CN(c1cc2oc(=O)c(C(=O)O)cc2s1)S(=O)(=O)c1cccc(C(F)(F)F)c1` [Compound 1.028, 2-[Methyl-(3-trifluoromethyl-benzenesulfonyl)-amino]-5-oxo-5H-thieno[3,2-b]pyran-6-carboxylic acid] had an IC50 (Table 1 (Group 1)) of less than 1 µM.
With `CN(Cc1cccc(-c2ccc(F)cc2)c1)c1cc2oc(=O)c(C(=O)O)cc2s1` [Compound 2.050, 2-(((4′-fluoro-[1,1′-biphenyl]-3-yl)methyl)(methyl)amino)-5-oxo-5H-thieno[3,2-b]pyran-6-carboxylic acid], for the setting “Table 2 (Group 2)”, the half-maximal inhibitory concentration (IC50) is less than 1 µM.
Same read-out and setting: for `CCOc1cccc(NC(=O)N(C)c2cc3oc(=O)c(C(=O)O)cc3s2)c1` [Compound 2.009, 2-(3-(3-ethoxyphenyl)-1-methylureido)-5-oxo-5H-thieno[3,2-b]pyran-6-carboxylic acid] the value was less than 1 µM; for `CN(C(=O)Nc1ccc(OC(F)(F)F)cc1)c1cc2oc(=O)c(C(=O)O)cc2s1` [Compound 2.019, 2-(1-methyl-3-(4-(trifluoromethoxy)phenyl)ureido)-5-oxo-5H-thieno[3,2-b]pyran-6-carboxylic acid], less than 1 µM.
Same read-out and setting: to `CN(C(=O)NC1CCCCC1)c1cc2oc(=O)c(C(=O)O)cc2s1` [Compound 2.007, 2-(3-cyclohexyl-1-methylureido)-5-oxo-5H-thieno[3,2-b]pyran-6-carboxylic acid] belongs less than 1 µM; to `CN(C(=O)Nc1cc(C(C)(C)C)on1)c1cc2oc(=O)c(C(=O)O)cc2s1` [Compound 2.055, 2-(3-(5-(tert-butyl)isoxazol-3-yl)-1-methylureido)-5-oxo-5H-thieno[3,2-b]pyran-6-carboxylic acid], less than 1 µM.
In turn, `CN(Cc1cc(C(F)(F)F)cc(C(F)(F)F)c1)c1cc2oc(=O)c(C(=O)O)cc2s1` [Compound 1.007, 2-((3,5-bis(trifluoromethyl)benzyl)(methyl)amino)-5-oxo-5H-thieno[3,2-b]pyran-6-carboxylic acid] registered an IC50 (Table 1 (Group 1)) of less than 1 µM.
As for `COc1cnccc1NC(=O)N(C)c1cc2oc(=O)c(C(=O)O)cc2s1` [Compound 2.047, 2-(3-(3-methoxypyridin-4-yl)-1-methylureido)-5-oxo-5H-thieno[3,2-b]pyran-6-carboxylic acid], the 50% inhibitory concentration (IC50) (Table 2 (Group 2)) was less than 1 µM.
On the same count and under the same terms, for `Cc1ccccc1NC(=O)N(C)c1cc2oc(=O)c(C(=O)O)cc2s1` [Compound 2.035, 2-(1-methyl-3-(o-tolyl)ureido)-5-oxo-5H-thieno[3,2-b]pyran-6-carboxylic acid] the value was less than 1 µM.
